Laboratory results: patent US7084155B2, “Chemokine receptor binding heterocyclic compounds” (AnorMED, priority 2000, dated 2006)

Columns and labels:
Assay type in all cases: cell-based
[1] = system: SDF-1 induced Ca flux in SUP-T1 cells; assay: Inhibition of chemokine (SDF-1) induced Ca flux measured on a FLIPR; conditions: Homo sapiens
Method: Inhibition of Chemokine Induced Ca Flux Measured on a FLIPR (Molecular Devices) Loading dye: Fluo-3, AM (Molecular Probes F-1241) is dissolved in anhydrous DMSO and stored frozen in aliquots. To increase the solubility of the dye in the loading medium, 10% (w/v) pluronic acid (Molecular Probes F-127) is added to the Fluo-3 stock solution immediately before use. HBSS+20 mM Hepes buffer+0.2% BSA, pH 7.4. HBSS 10× [(w/o phenol red and sodium bicarbonate (Gibco 14 065–049)]; Hepes buffer 1M (Gibco 15 630–056), BSA (Sigma A3675). The flux buffer is vacuum-filtered and stored refrigerated for a maximum of 5 days. Before use in the experiment, the buffer is warmed at 37° C. in a waterbath. The test compounds were diluted in flux buffer to the desired concentration and added to 4 wells of a black microplate (4 parallel measurements per compound). The following control wells were used: 100% response control (no inhibition), flux buffer was added; 100% inhibition control: chemokine was added at 5-times the concentration required to induce a Ca flux. The chemokines are diluted in flux buffer to concentrations that are 4-fold higher than the desired concentrations required for stimulation of the cells (i.e. 2.5 nM for SDF-1[…] and 0.6 nM for RANTES). The chemokines were added to untreated 96-well Sero well compound plates (International Medical, Sterilin code 611F96). In the negative control well's (baseline monitoring), flux buffer is added instead of chemokine. As a positive control to check for dye loading efficiency, 20 μM digitonin (final concentration) was also included. The agonist plate was incubated in the FLIPR (37° C.) for 15–30 min. Cell Loading Protocol for Measuring Inhibition of SDF-1[…] Induced Ca Flux in SUP-T1 Cells. SUP-T1 cells were centrifuged at room temperature (RT) and re-suspended in loading medium (RPMI-1640 containing 2% FBS and 4 μM Fluo-3, AM). The cells were incubate at room temperature for 45 min. then washed twice in flux buffer then incubated in flux buffer at room temperature for 10 min. The cells were centrifuged and re-suspended in flux buffer at a density of 3×10^6 cells per mL. A 100 uL aliquot of the cell suspension (3×10^5 cells) was added to each well of a black microplate (Costar 3603), which already contains 50 uL of a solution of the test compound (at concentrations that are 3-fold higher than the desired final compound concentrations). The microplate is then gently centrifuged at room temperature. Homogeneous spreading of the cells on the bottom of the microplate wells was then confirmed with a microscope and the microplate was incubated in the FLIPR (37° C.) for 10 min. prior to testing. Fluorescence Measurements as a Function of Time on the FLIPR The FLIPR settings (camera exposure time and laser power) are adjusted to obtain initial fluorescence values between 8,000 and 10,000 units. After monitoring a 20 second-baseline, the agonist (chemokine) (50 uL) is added by automatic pipettor with black pipette tips. Fluorescence is measured simultaneously in all wells of the microplate every 2 seconds (first 2 min) and thereafter every 6 seconds (additional 2 min). The average ca-flux measured in each set of 4 identical wells (one test compound) was calculated by the FLIPR software.

HIV-1 NL4.3 or IIIB = assay: Inhibition of HIV-1 (NL4.3 or IIIB, CXCR4 using) replication in MT-4 cells, MTT viability; conditions: Human immunodeficiency virus 1, IIIB, MT4, concentration protecting 50% of virus-infected cells against viral cytopathicity
Method: Assay for Inhibition of HIV-1 (NL4.3) Replication in MT-4 Cells Inhibition of HIV-1 NL4.3 (or IIIB, CXCR4 using) replication assays were performed as previously described (Bridger et al. J. Med. Chem. 1999, 42, 3971-3981; De […] et al. Proc. Natl. Acad. Sci, 1992, 89, 5286-5290; De […] et al. Antimicrob. Agents Chemother. 1994, 38, 668-674; Bridger et al. J. Med. Chem. 1995, 38, 366-378; Schols et al. J. Exp. Med., 1997, 186, 1383-1388). Anti-HIV activity and cytotoxicity measurements were carried out in parallel. They were based on the viability of MT-4 cells that had been infected with HIV in the presence of various concentrations of the test compounds. After the MT-4 cells were allowed to proliferate for 5 days, the number of viable cells was quantified by a tetrazolium-based colorimetric 3-(4,5-dimethylthiazol-2-yl)-2,5-diphenyltetrazolium bromide (MTT) procedure in 96-well microtrays. In all of these assays, viral input (viral multiplicity of infection, MOI) was 0.01, or 100 times the 50% cell culture infective dose (CCID50). The EC50 was defined as the concentration required to protect 50% of the virus-infected cells against viral cytopathicity.

HIV-1 BaL = assay: Inhibition of HIV-1 BaL (CCR5 using) replication in PHA-stimulated PBMC's, viral p24 antigen expression; conditions: Human immunodeficiency virus 1, BAL

Row | SMILES | EC50 (HIV-1 NL4.3 or IIIB) [µg/mL] | EC50 (HIV-1 BaL) [µg/mL] | inhibition at 20 µg/mL [1] [%]
1 | c1ccc(-c2cccc3nc(CN(Cc4ccc(CNCc5ccccn5)cc4)C4CCCc5cccnc54)[nH]c23)cc1 (stereo not drawn) [Example 14, N-(2-pyridinylmethyl)-N′-[4-phenyl-1H-benzimidazol-2-ylmethyl]-N′-(5,6,7,8-tetrahydro-8-quinolinyl)-1,4-benzenedimethanamine] | < 20 | < 20 | > 20
2 | c1ccc(-c2cnc(CN(Cc3ccc(CNCc4ccccn4)cc3)C3CCCc4cccnc43)[nH]2)cc1 (stereo not drawn) [Example 25, N-(2-pyridinylmethyl)-N′-(4-Phenyl-1H-imidazol-2-ylmethyl)-N′-(5,6,7,8-tetrahydro-8-quinolinyl)-1,4-benzenedimethanamine] | < 20 | < 20 | > 20
3 | O=[N+]([O-])c1ccc(-c2cnc(CN(Cc3ccc(CNCc4ccccn4)cc3)C3CCCc4cccnc43)[nH]2)cc1 (stereo not drawn) [Example 27, N-(2-pyridinylmethyl)-N′-[4-(4-nitrophenyl)-1H-imidazol-2-ylmethyl]-N′-(5,6,7,8-tetrahydro-8-quinolinyl)-1,4-benzenedimethanamine] | < 20 | < 20 | > 20
4 | CC(C)(C)c1cnc(CN(Cc2ccc(CNCc3ccccn3)cc2)C2CCCc3cccnc32)[nH]1 (stereo not drawn) [Example 29, N-(2-Pyridinylmethyl)-N′-(5-tert-butyl-1H-imidazol-2-ylmethyl)-N′-(5,6,7,8-tetrahydro-8-quinolinyl)-1,4-benzenedimethanamine] | < 20 | < 20 | > 20
5 | COc1cccc(-c2cnc(CN(Cc3ccc(CNCc4ccccn4)cc3)C3CCCc4cccnc43)[nH]2)c1 (stereo not drawn) [Example 30, N-(2-Pyridinylmethyl)-N′-[5-(3-methoxyphenyl)-1H-imidazol-2-ylmethyl]-N′-(5,6,7,8-tetrahydro-8-quinolinyl)-1,4-benzenedimethanamine] | < 20 | < 20 | > 20
6 | Cc1cc(CNCc2ccc(CN(Cc3nc4ccccc4[nH]3)C3CCCc4cccnc43)cc2)cc(C)n1 (stereo not drawn) [Example 62, N-(2,6-dimethyl-4-pyridinylmethyl)-N′-(1H-benzimidazol-2-ylmethyl)-N′-(5,6,7,8-tetrahydro-8-quinolinyl)-1,4-benzenedimethanamine] | < 20 | < 20 | > 20
7 | COc1cc(CNCc2ccc(CN(Cc3nc4ccccc4[nH]3)C3CCCc4cccnc43)cc2)nc2ccccc12 (stereo not drawn) [Example 64, N-(4-methoxy-2-quinolinylmethyl)-N′-(1H-benzimidazol-2-ylmethyl)-N′-(5,6,7,8-tetrahydro-8-quinolinyl)-1,4-benzenedimethanamine] | < 20 | < 20 | > 20
8 | CC(NCc1ccc(CN(Cc2nc3ccccc3[nH]2)C2CCCc3cccnc32)cc1)c1ccccn1 (stereo not drawn) [Example 66, N-[1-(2-pyridinyl)eth-1-yl]-N′-(1H-benzimidazol-2-ylmethyl)-N′-(5,6,7,8-tetrahydro-8-quinolinyl)-1,4-benzenedimethanamine] | < 20 | < 20 | > 20

The next lines start with results.

Row | EC50 (HIV-1 NL4.3 or IIIB) [µg/mL] | EC50 (HIV-1 BaL) [µg/mL] | SMILES | inhibition at 20 µg/mL [1] [%]
9 | < 20 | < 20 | FC(F)(F)c1ccc2nc(CN(Cc3ccc(CNCc4ccccn4)cc3)C3CCCc4cccnc43)[nH]c2c1 (stereo not drawn) [Example 1, N-(2-pyridinylmethyl)-N′-(5-trifluoromethyl-1-H-benzimidazol-2-ylmethyl)-N′-(5,6,7,8-tetrahydro-8-quinolinyl)-1,4-benzenedimethanamine] | > 20
10 | < 20 | < 20 | Cc1cc2nc(CN(Cc3ccc(CNCc4ccccn4)cc3)C3CCCc4cccnc43)[nH]c2cc1C (stereo not drawn) [Example 2, N-(2-pyridinylmethyl)-N′-(5,6-dimethyl-1-H-benzimidazol-2-ylmethyl)-N′-(5,6,7,8-tetrahydro-8-quinolinyl)-1,4-benzenedimethanamine] | > 20
11 | < 20 | < 20 | COc1cccc2[nH]c(CN(Cc3ccc(CNCc4ccccn4)cc3)C3CCCc4cccnc43)nc12 (stereo not drawn) [Example 13, N-(2-pyridinylmethyl)-N′-[4-methoxy-1H-benzimidazol-2-ylmethyl]-N′-(5,6,7,8-tetrahydro-8-quinolinyl)-1,4-benzenedimethanamine] | > 20
12 | < 20 | < 20 | Cc1nc(CN(Cc2ccc(CNCc3ccccn3)cc2)C2CCCc3cccnc32)[nH]c1-c1ccccc1 (stereo not drawn) [Example 28, N-(2-Pyridinylmethyl)-N′-(4-methyl-5-phenyl-1H-imidazol-2-ylmethyl)-N′-(5,6,7,8-tetrahydro-8-quinolinyl)-1,4-benzenedimethanamine] | > 20
13 | < 20 | < 20 | FC(F)(F)c1c[nH]c(CN(Cc2ccc(CNCc3ccccn3)cc2)C2CCCc3cccnc32)n1 (stereo not drawn) [Example 35, N-(2-pyridinylmethyl)-N′-(4-trifluormethyl-1H-imidazol-2-ylmethyl)-N′-(5,6,7,8-tetrahydro-8-quinolinyl)-1,4-benzenedimethanamine] | > 20
14 | < 20 | < 20 | CCCCc1ccc(CNCc2ccc(CN(Cc3nc4ccccc4[nH]3)C3CCCc4cccnc43)cc2)nc1 (stereo not drawn) [Example 54, N-(5-butyl-2-pyridinylmethyl)-N′-(1H-benzimidazol-2-ylmethyl)-N′-(5,6,7,8-tetrahydro-8-quinolinyl)-1,4-benzenedimethanamine] | > 20
15 | < 20 | < 20 | Oc1cccnc1CNCc1ccc(CN(Cc2nc3ccccc3[nH]2)C2CCCc3cccnc32)cc1 (stereo not drawn) [Example 55, N-(3-hydroxy-2-pyridinylmethyl)-N′-(1H-benzimidazol-2-ylmethyl)-N′-(5,6,7,8-tetrahydro-8-quinolinyl)-1,4-benzenedimethanamine] | > 20
16 | < 20 | < 20 | Cc1cc(C)nc(CNCc2ccc(CN(Cc3nc4ccccc4[nH]3)C3CCCc4cccnc43)cc2)c1 (stereo not drawn) [Example 61, N-(4,6-dimethyl-2-pyridinylmethyl)-N′-(1H-benzimidazol-2-ylmethyl)-N′-(5,6,7,8-tetrahydro-8-quinolinyl)-1,4-benzenedimethanamine] | > 20
17 | < 20 | < 20 | c1cnc2c(c1)CCCC2N(Cc1ccc(CNCc2cc3ccccc3cn2)cc1)Cc1nc2ccccc2[nH]1 (stereo not drawn) [Example 63, N-(3-isoquinolinylmethyl)-N′-(1H-benzimidazol-2-ylmethyl)-N′-(5,6,7,8-tetrahydro-8-quinolinyl)-1,4-benzenedimethanamine] | > 20
18 | < 20 | < 20 | c1ccc(CNCc2ccc(CN(CCNCc3nc4ccccc4[nH]3)C3CCCc4cccnc43)cc2)nc1 (stereo not drawn) [Example 67, N-(2-pyridinylmethyl)-N′-[2-[(1H-benzimidazol-2-ylmethyl)amino]ethyl]-N′-(5,6,7,8-tetrahydro-8-quinolinyl)-1,4-benzenedimethanamine] | > 20
